Test results as given in patent US8846951B2 (AbbVie Inc., priority 2009, dated 2014).

Assays:
5-HT6 receptor = molecular target: T1, 5-HT6 receptor (Homo sapiens, UniProt P50406); assay: Human 5-HT6 receptor radioligand binding assay (transfected CHO cells, [3H]LSD); conditions: transfected CHO cell membranes, 2 nM [3H]LSD
T1 construct: expressed in transfected cells; host or cells: CHO cells (membrane homogenates)
Method: (vi) Human 5-HT6 Receptor Radioligand Binding Assay
Affinity of compounds for the agonist site of the 5-HT6 receptor in transfected CHO cells was determined in a radioligand binding assay essentially as described by Monsma, F. J., et al., Mol. Pharmacol. (1993) 43, 320-327. […] Nonspecific binding was determined in the presence of 100 μM serotonin. The amount of binding was determined by radioactivity quantitation with scintillation counter. IC50s were determined from a standard curve of the reference compound serotonin. Ki's as shown in Table 7 were derived from the IC50s in the standard method.

h-5-HT6 receptor = molecular target: T2, h-5-HT6 receptor (Homo sapiens, UniProt P50406); assay: Human 5-HT6 receptor radioligand binding assay (HEK293 membranes, [3H]-LSD); conditions: HEK293 membranes expressing h-5-HT6 receptor, 1 nM [3H]-LSD; geometrical mean; read-out: Ki (5-HT6 Agonist Site Radioligand Binding)
T2 construct: expressed in transfected cells; host or cells: HEK293 cells (membranes)
T2 sequence (P50406 whole entry): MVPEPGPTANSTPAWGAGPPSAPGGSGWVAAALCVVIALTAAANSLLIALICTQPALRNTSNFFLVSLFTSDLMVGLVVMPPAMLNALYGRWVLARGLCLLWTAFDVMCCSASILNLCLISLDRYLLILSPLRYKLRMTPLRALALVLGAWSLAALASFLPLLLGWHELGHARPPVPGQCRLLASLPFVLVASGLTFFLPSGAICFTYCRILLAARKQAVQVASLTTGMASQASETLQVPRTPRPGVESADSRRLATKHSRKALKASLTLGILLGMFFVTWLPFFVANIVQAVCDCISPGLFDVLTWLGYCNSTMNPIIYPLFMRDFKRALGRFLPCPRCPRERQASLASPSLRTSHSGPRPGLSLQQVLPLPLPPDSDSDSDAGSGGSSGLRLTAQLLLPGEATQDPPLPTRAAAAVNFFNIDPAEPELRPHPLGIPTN
Method: (v) Human 5-HT6 Receptor Radioligand Binding Assay
Preparation of Membranes by Ultrasonic Treatment and Differential Centrifugation
Cells from stable clonal cell lines expressing the corresponding receptor (5-HT6) were washed with PBS (without Ca^++, Mg^++) and harvested in PBS with 0.02% EDTA. The cells were collected by centrifugation at 500 g for 10 minutes at 4° C., washed with PBS and centrifuged (500 g, 10 minutes at 4° C.). The pellets were stored at −80° C. until use. For membrane preparation, the thawed cell pellet was resuspended in ice-cold sucrose buffer (0.25 M sucrose, 10 mM HEPES (pH 7.4), 1 mM phenylmethylsulfonyl fluoride (PMSF) in DMSO, 5 μg/ml Pepstatin-A, 3 mM EDTA, 0.025% Bacitracin) and homogenized with a Branson Sonifier W-250 (Settings: Timer 4; Output Control 3; Duty Cycle constant; 2 to 3 cycles). Cell disruption was checked with the aid of a microscope. Remaining unbroken cells were pelleted at 1,000 g for 10 minutes at 4° C. The sucrose buffer supernatant was then centrifuged at 60,000 g for 1 hour at 4° C. (Beckman Ultracentrifuge XL 80). The pellet was resuspended in 30 mL of ice-cold Tris buffer (20 mM TRIS (pH 7.4), 5 μg/mL Pepstatin A, 0.1 mM PMSF, 3 mM EDTA) by pipetting through a 10 mL serological pipette and centrifuged for 1 hour at 4° C. at 60,000 g. A final resuspension was performed in a small volume of ice-cold Tris buffer (see above) by pressing through a serological pipette followed by ultrasonic treatment with a Branson Sonifier W-250 (Settings: Timer 1; Output Control 3; Duty Cycle constant; 1 cycle). Protein concentration was determined (BCA-Kit; Pierce) and aliquots stored at −80° C. or in liquid nitrogen for long-term storage.
Receptor Binding Experiments
All receptor binding experiments were carried out in the corresponding assay buffer in a total volume of 200 μL in the presence of various concentrations of test compound (10^−5 M to 10^−9 M, tenfold serial dilution, duplicate determinations). The assays were terminated by filtration on polyethylenimine (PEI 0.1% or 0.3%) presoaked Packard Unifilter Plates (GF/C or GF/B) with a Tomtec MachIII U 96 well-plate harvester. After the plates had been dried for 2 hours at 55° C. in a drying chamber scintillation cocktail (BetaPlate Scint; PerkinElmer) was added. Radioactivity was measured in a Microbeta Trilux two hours after the addition of the scintillation mixture.
5-HT6 Receptor Binding Assay
HEK293 cells stably expressing the h-5-HT6 receptor (NCBI Reference Sequence XM 001435) were cultured in RPMI1640 medium supplemented with 25 mM HEPES, 10% fetal calf serum and 1-2 mM glutamine. The membrane preparation was performed as described above. […] On the day of the assay, the membranes were thawed, diluted in assay buffer (50 mM Tris-HCl, 5 mM CaCl2, 0.1% ascorbic acid, 10 μM pargyline, pH 7.4) to a concentration of 8 μg protein/assay and homogenized by gentle vortexing. […] Non-specific binding was defined with 1 μM methiothepin. The binding reaction was carried out for 3.5 hours at room temperature. During the incubation, the plates were shaken on a plate shaker at 100 rpm and terminated by filtration on Packard Unifilter GF/C (0.1% PEI) plates, followed by 2 wash cycles with ice-cold 50 mM Tris-HCl, 5 mM CaCl2.
Data derived from liquid scintillation counting were analyzed by iterative non-linear regression analysis with the use of the Statistical Analysis System (SAS): a program similar to “LIGAND” as described by Munson and Rodbard (Anal. Biochem. 1980, 107, 220-239). Fitting was performed according to formulae described by Feldman (Anal. Biochem. 1972, 48, 317-338). IC50 and Ki values were expressed as geometrical mean.

[1] = molecular target: T3, human serotonin 5-HT2c receptor (Homo sapiens, UniProt P28335); assay: Human 5-HT2C receptor radioligand binding assay (agonist site, [125I]DOI); conditions: 5-HT2c agonist site; transfected CHO cell membranes; 0.2 nM [125I](±)DOI
T3 construct: expressed in transfected cells; host or cells: CHO cells (membrane homogenates)
T3 sequence (P28335 33-458): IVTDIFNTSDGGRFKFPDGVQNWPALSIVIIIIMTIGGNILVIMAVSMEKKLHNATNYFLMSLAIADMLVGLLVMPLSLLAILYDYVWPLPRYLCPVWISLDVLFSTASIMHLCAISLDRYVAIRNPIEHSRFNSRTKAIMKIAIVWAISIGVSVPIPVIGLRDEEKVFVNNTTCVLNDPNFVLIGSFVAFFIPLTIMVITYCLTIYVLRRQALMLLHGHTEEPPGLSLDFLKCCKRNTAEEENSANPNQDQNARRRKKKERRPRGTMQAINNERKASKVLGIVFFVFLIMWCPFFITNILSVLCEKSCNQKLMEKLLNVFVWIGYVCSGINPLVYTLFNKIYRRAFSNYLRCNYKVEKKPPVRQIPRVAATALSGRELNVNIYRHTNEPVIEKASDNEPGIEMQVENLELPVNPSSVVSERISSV
Method: (i) Human 5-HT2C Receptor Radioligand Binding Assay
Affinity of compounds for the agonist site of the […], receptor in transfected CHO cells was determined in a radioligand binding assay essentially as described by Bryant, H. U., et al., Life Sciences (1996) 59(15), 1259-1268.

5HT2C receptors [2] = molecular target: T4, 5HT2C receptors (Homo sapiens, UniProt P28335); assay: Human 5-HT2C functional assay in 1321N1 cells (intracellular calcium, FLIPR); format: cell-based; set-up: expressed in transfected cells; host or cells: 1321N1 cells; conditions: 5-HT2c agonist activity, maximum calcium response
T4 sequence (P28335 33-458): T3 sequence (P28335 33-458)
Outline: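 1321N1 cells stably expressing human 5-HT2C were serum-starved overnight and loaded with Fluo-4 AM and 1% probenecid. Compounds (10^−10 to 10^−5 M) were tested alone or with 10^−9 M serotonin, and peak calcium was read by FLIPR. EC50 from four-parameter logistic fit.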

5HT2C receptors [3] = molecular target: T4, 5HT2C receptors; assay: Human 5-HT2C functional assay in CHO-K1 cells (96-well, calcium, FLIPR); format: cell-based; set-up: expressed in transfected cells; conditions: 5-HT2c agonist activity, CHO-K1 cells stably transfected
Method: (iv) Human 5-HT2C Functional Assay in CHO-K1 Cells
Functional activity was determined by testing the effect of the compounds on intracellular calcium levels in CHO-K1 cells stably transfected with the human 5-HT2C receptor. Cells were seeded into 96-well plates at 60,000 cells/well and grown overnight in tissue culture medium (UltraCHO™ (Lonza), containing 1% dFCS, 250 μg/mL Zeocin, 400 μg/mL Geneticin) at 37° C. and 5% CO2. Growth medium was replaced by medium without dFCS for overnight incubation. Cells were loaded with a fluorescent calcium-sensitive dye in the presence of probenicid according to the manufacturer's protocol (FLIPR Ca4 Assay kit, Molecular Devices). Serial compound dilutions (final concentrations 10^−10 to 10^−5 M) were added to the cells and the maximum calcium response was determined using a FLIPR instrument (Molecular Devices). Concentration-response curves were fitted using a four-parameter logistic equation (GraphPad Prism). The concentration at which the compound exerts half its maximal effect is named the ‘effective concentration 50’ or ‘EC50’ and is listed in Table 5.

T1 sequence (P50406 whole entry): as the sequence (P50406 whole entry) above

| Compound | Ki (5-HT6 receptor) | Ki (h-5-HT6 receptor) | Ki [1] | EC50 (5HT2C receptors [2]) | EC50 (5HT2C receptors [3]) |
| --- | --- | --- | --- | --- | --- |
| O=C1NCc2ccccc2[C@@H]2CN(S(=O)(=O)c3cccc(Cl)c3Cl)C[C@@H]12 (relative stereo) [Example 39, Trans-2-(2,3-dichlorophenylsulfonyl)-1,2,3,3a,5,6-hexahydrobenzo[c]pyrrolo[3,4-e]azepin-4(10bH)-one] | 275 nM | 207 nM |  |  |  |
| O=S(=O)(c1cccc(C(F)(F)F)c1)N1Cc2ccccc2[C@@H]2CN(Cc3ccccc3)C[C@H]2C1 (relative stereo) [Example 16, Trans-2-benzyl-5-(3-(trifluoromethyl)phenylsulfonyl)-1,2,3,3a,4,5,6,10b-octahydrobenzo[c]pyrrolo[3,4-e]azepine] | 140 nM |  | 560 nM | > 10000 nM |  |
| O=S(=O)(c1ccc(F)c(Cl)c1)N1Cc2ccccc2[C@@H]2CN(Cc3ccccc3)C[C@H]2C1 (relative stereo) [Example 14, Trans-2-benzyl-5-(3-chloro-4-fluorophenylsulfonyl)-1,2,3,3a,4,5,6,10b-octahydrobenzo[c]pyrrolo[3,4-e]azepine] | 250 nM |  | 590 nM | > 10000 nM |  |
| O=S(=O)(c1cccc(Cl)c1)N1Cc2ccccc2[C@@H]2CN(Cc3ccccc3)C[C@H]2C1 (relative stereo) [Example 20, Trans-2-benzyl-5-(3-chlorophenylsulfonyl)-1,2,3,3a,4,5,6,10b-octahydrobenzo[c]pyrrolo[3,4-e]azepine] | 43 nM |  | 260 nM | > 10000 nM |  |
| O=S(=O)(c1cccc(Br)c1)N1Cc2ccccc2[C@@H]2CN(Cc3ccccc3)C[C@H]2C1 (relative stereo) [Example 12, Trans-2-benzyl-5-(3-bromophenylsulfonyl)-1,2,3,3a,4,5,6,10b-octahydrobenzo[c]pyrrolo[3,4-e]azepine] | 57 nM |  | 320 nM | > 10000 nM |  |
| O=S(=O)(c1cccc(F)c1)N1Cc2ccccc2[C@@H]2CN(Cc3ccccc3)C[C@H]2C1 (relative stereo) [Example 8, Trans-2-benzyl-5-(3-fluorophenylsulfonyl)-1,2,3,3a,4,5,6,10b-octahydrobenzo[c]pyrrolo[3,4-e]azepine] | 28 nM | 40.3 nM | 93 nM |  | > 1000 nM |
